Reference: patent publication US7713994B2 (Wyeth LLC, priority 2005, dated 2010)

Assays:
HCT-116 = assay: Cytotoxicity assay (SRB), HCT-116; type: cell-based; conditions: Homo sapiens, HCT-116, 72 h, HCT116 cells, SRB, three days; read-out: In Vitro Cellular Activity IC50 HCT116
Method in brief: (§1)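 Percentage survival is derived from SRB absorbance (540 nm) versus untreated cells. Exposures were 3 days, except 6 days for BT474, at 37 °C and 7% CO2.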

LoVo = assay: Cytotoxicity assay (SRB), LoVo; type: cell-based; conditions: Homo sapiens, LoVo, 72 h, LoVo cells, SRB, three days; read-out: In Vitro Cellular Activity IC50 LOVO
Method in brief: as §1

cyclin E/CDK2 enzyme = molecular target: T1, cyclin E/CDK2 enzyme (Homo sapiens, UniProt P24941); assay: CDK2 ELISA kinase assay (phospho-Rb ser 795 detection); type: biochemical; conditions: In Vitro Enzyme Assays, read-out: CDK2 IC50
T1 construct: made in house; host or cells: Sf9 insect cells, recombinant baculovirus
Method in brief: (§2)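 Screening was done at 10 ug/ml compound. Each partially purified cyclin/CDK complex, produced in baculovirus-infected Sf9 cells, phosphorylated a coated GST-Rb C-terminal fragment with 200 μM ATP, and Ser795 phosphorylation was quantified by HRP-ELISA at 450 nm.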

cyclin B/CDK1 enzyme = molecular target: T2, cyclin B/CDK1 enzyme (Homo sapiens, UniProt P06493); assay: CDK1 ELISA kinase assay (phospho-Rb ser 795 detection); type: biochemical; conditions: In Vitro Enzyme Assays, read-out: CDK1 IC50
T2 construct: purchased New England BioLabs; host or cells: Sf9 insect cells, recombinant baculovirus
Method in brief: as §2

MCF-7 = assay: Cytotoxicity assay (SRB), MCF-7; type: cell-based; conditions: Homo sapiens, MCF7, 72 h, MCF-7 cells, SRB, three days; read-out: In Vitro Cellular Activity IC50 MCF-7
Method in brief: as §1

cyclin D1/cdk 4 enzyme = molecular target: T3, cyclin D1/cdk 4 enzyme (Homo sapiens, UniProt P11802); assay: CDK4 ELISA kinase assay (phospho-Rb ser 795 detection); type: biochemical; conditions: In Vitro Enzyme Assays, 200 μM ATP, read-out: CDK4 IC50
T3 construct: made in house; host or cells: Sf9 insect cells, recombinant baculovirus
Method in brief: as §2

BT474 = assay: Cytotoxicity assay (SRB), BT474; type: cell-based; conditions: Homo sapiens, BT-474, 144 h, BT474 cells, SRB, 6 days; read-out: In Vitro Cellular Activity IC50 BT474
Method in brief: as §1

T3 sequence (P11802 whole entry, species assumed): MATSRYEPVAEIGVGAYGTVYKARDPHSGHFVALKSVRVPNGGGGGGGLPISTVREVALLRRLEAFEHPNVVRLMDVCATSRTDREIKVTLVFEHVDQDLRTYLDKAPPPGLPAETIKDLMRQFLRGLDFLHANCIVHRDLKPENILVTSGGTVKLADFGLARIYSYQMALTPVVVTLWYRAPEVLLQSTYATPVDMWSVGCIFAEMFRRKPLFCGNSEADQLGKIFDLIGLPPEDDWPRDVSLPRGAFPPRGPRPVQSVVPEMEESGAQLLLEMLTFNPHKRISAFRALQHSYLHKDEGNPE
T3 sequence (P24385 whole entry partner, species assumed): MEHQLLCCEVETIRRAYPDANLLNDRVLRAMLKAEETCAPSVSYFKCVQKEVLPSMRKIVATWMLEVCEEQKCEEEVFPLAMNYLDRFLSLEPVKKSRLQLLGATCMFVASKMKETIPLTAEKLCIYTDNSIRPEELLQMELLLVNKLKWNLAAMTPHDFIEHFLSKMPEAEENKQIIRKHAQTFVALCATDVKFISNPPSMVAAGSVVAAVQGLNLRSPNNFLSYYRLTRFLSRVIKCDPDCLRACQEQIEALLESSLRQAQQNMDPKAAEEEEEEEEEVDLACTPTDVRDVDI
T2 sequence (P06493 whole entry): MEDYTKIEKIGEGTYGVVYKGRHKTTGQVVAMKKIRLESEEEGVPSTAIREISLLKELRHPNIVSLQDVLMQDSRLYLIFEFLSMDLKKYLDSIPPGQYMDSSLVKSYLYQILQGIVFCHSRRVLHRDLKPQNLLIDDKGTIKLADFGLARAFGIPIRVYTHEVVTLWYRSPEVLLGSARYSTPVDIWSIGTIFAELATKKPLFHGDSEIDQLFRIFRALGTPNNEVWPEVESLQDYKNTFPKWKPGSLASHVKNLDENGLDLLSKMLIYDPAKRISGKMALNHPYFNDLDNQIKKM
T2 sequence (P14635 whole entry partner): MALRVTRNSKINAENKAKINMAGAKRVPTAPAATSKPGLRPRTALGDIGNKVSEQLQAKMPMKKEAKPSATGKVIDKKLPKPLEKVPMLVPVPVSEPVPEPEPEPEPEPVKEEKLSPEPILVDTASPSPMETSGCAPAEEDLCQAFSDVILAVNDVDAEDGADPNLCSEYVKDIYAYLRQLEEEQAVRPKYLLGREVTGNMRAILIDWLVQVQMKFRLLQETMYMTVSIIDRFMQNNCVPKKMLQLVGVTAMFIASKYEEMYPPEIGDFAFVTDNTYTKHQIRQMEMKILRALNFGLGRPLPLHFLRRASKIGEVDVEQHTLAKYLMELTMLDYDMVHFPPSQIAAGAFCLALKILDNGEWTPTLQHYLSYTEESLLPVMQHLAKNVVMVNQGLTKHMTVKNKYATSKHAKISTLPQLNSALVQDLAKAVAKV

SMILES	IC50 (HCT-116) [nM]	IC50 (LoVo) [µM]	IC50 (cyclin E/CDK2 enzyme) [µM]	IC50 (cyclin B/CDK1 enzyme) [µM]	melting point	IC50 (MCF-7) [nM]	IC50 (cyclin D1/cdk 4 enzyme) [nM]	IC50 (BT474) [nM]
CO[C@@H]1CCN(Cc2ccc(N/C=C3\C(=O)NC(=O)c4ccc(I)cc43)cc2)C1 [Example 264, (4Z)-6-Iodo-4-{[(4-{[(3R)-3-methoxypyrrolidin-1-yl]methyl}phenyl)amino]methylene}isoquinoline-1,3(2H,4H)-dione]	4400	8.8	> 50	> 50	160 to 161 °C	2000	1000	2200
CO[C@H]1CCN(Cc2ccc(N/C=C3\C(=O)NC(=O)c4ccc(-c5ccc(F)cc5)cc43)cc2)C1 [Example 265, (4Z)-6-(4-Fluorophenyl)-4-{[(4-{[(3S)-3-methoxypyrrolidin-1-yl]methyl}phenyl)amino]methylene}isoquinoline-1,3(2H,4H)-dione]	2000	2.8	> 50	> 50	145 to 146 °C	1400	300	1700
CO[C@@H]1CCN(Cc2ccc(N/C=C3\C(=O)NC(=O)c4ccc(Br)cc43)cc2)C1 [Example 266, (4Z)-6-Bromo-4-{[(4-{[(3R)-3-methoxypyrrolidin-1-yl]methyl}phenyl)amino]methylene}isoquinoline-1,3(2H,4H)-dione]	6200	8.4	> 50	> 50	132 to 133 °C	4000	1900	9100
O=C1NC(=O)c2ccc(I)cc2/C1=C/NCc1ccc(OC(F)F)c(O)c1 [Example 267]	3700	3.7	1.7	16.5	254 to 255 °C	4800	8	3500
O=C1NC(=O)c2ccc(I)cc2/C1=C/Nc1ccc(Cn2ccnc2)cc1 [Example 273, (4Z)-4-({[4-(1H-Imidazol-1-ylmethyl)phenyl]amino}methylene)-6-iodoisoquinoline-1,3(2H,4H)-dione]	3000	7.9	12.3	> 50	275 to 276 °C	13000	24700	7500
CCCOc1ccc(CNC=C2C(=O)NC(=O)c3ccc(-n4cccc4)cc32)cc1O [Example 278, 4-[(3-Hydroxy-4-propoxy-benzylamino)-methylene]-6-pyrrol-1-yl-4H-isoquinoline-1,3-dione]	2900	4.7	> 50	> 50	215 to 216 °C (dec.)	6300	30	5000
O=C1NC(=O)c2ccc(-c3ccc(C(F)(F)F)cc3)cc2/C1=C/Nc1ccc(CN2CCCC2)cc1 [Example 282, (4Z)-4-({[4-(Pyrrolidin-1-ylmethyl)phenyl]amino}methylene)-6-[4-(trifluoromethyl)phenyl]isoquinoline-1,3(2H,4H)-dione]	1100	2.7	> 50	> 50	176 to 177 °C	1100	27700	3000
O=C1NC(=O)c2ccc(Br)cc2/C1=C/Nc1ccc(CN2CCOCC2)cc1 [Example 286, (4Z)-6-Bromo-4-({[4-(morpholin-4-ylmethyl)phenyl]amino}methylene)isoquinoline-1,3(2H,4H)-dione]	5800	11	> 50	> 50	209 to 210 °C	5500	3000	16000
CC1CCCN1Cc1ccc(N/C=C2\C(=O)NC(=O)c3ccc(Br)cc32)cc1 (stereo not drawn) [Example 287, (4Z)-6-Bromo-4-[({4-[(2-methylpyrrolidin-1-yl)methyl]phenyl}amino)methylene]-isoquinoline-1,3(2H,4H)-dione]	4200	5.4	> 50	> 50	183 to 184 °C	1700	1600	1300
CN1CCN(c2ccc(N/C=C3\C(=O)NC(=O)c4ccc(Br)cc43)cc2F)CC1 [Example 288, (4Z)-6-Bromo-4-({[3-fluoro-4-(4-methylpiperazin-1-yl)phenyl]amino}methylene)-isoquinoline-1,3(2H,4H)-dione]	1700	2	> 50	> 50	206 to 207 °C	1500	2900	1800
CC1CCCN1Cc1ccc(N/C=C2\C(=O)NC(=O)c3ccc(-c4ccc(F)cc4)cc32)cc1 (stereo not drawn) [Example 289, (4Z)-6-(4-Fluorophenyl)-4-[({4-[(2-methylpyrrolidin-1-yl)methyl]phenyl}amino)-methylene]isoquinoline-1,3(2H,4H)-dione]	2200	7.4	> 50	> 50	165 to 166 °C	900	310	1300
CN1CCN(c2ccc(N/C=C3\C(=O)NC(=O)c4ccc(-c5ccc(F)cc5)cc43)cc2F)CC1 [Example 290, (4Z)-4-({[3-Fluoro-4-(4-methylpiperazin-1-yl)phenyl]amino}methylene)-6-(4-fluorophenyl)isoquinoline-1,3(2H,4H)-dione]	1800	5.4	> 50	> 50	166 to 167 °C	2300	320	2500
CC1CCCN1Cc1ccc(N/C=C2\C(=O)NC(=O)c3ccc(-c4ccoc4)cc32)cc1 (stereo not drawn) [Example 291, (4Z)-6-(3-Furyl)-4-[({4-[(2-methylpyrrolidin-1-yl)methyl]phenyl}amino)methylene]-isoquinoline-1,3(2H,4H)-dione]	2300	1.9	> 50	> 50	165 to 166 °C	590	190	1000
CN1CCN(c2ccc(N/C=C3\C(=O)NC(=O)c4ccc(I)cc43)cc2F)CC1 [Example 295, (4Z)-4-({[3-Fluoro-4-(4-methylpiperazin-1-yl)phenyl]amino}methylene)-6-iodoisoquinoline-1,3(2H,4H)-dione]	3100	3.7	> 50	> 50	211 to 212 °C	1800	1500	3100
O=C1NC(=O)c2ccc(I)cc2/C1=C/Nc1ccc(CN2CCOCC2)cc1 [Example 296, (4Z)-6-Iodo-4-({[4-(morpholin-4-ylmethyl)phenyl]amino}methylene)isoquinoline-1,3(2H,4H)-dione]	4000	5	> 50	> 50	186 to 187 °C	2600	2100	6200
